Assay results reported in ChEMBL document CHEMBL1138341, “(S)-N-{3-[1-cyclopropyl-1-(2,4-difluoro-phenyl)-ethyl]-1H-indol-7-yl}-methanesulfonamide: a potent, nonsteroidal, functional antagonist of the mineralocorticoid receptor” (J Med Chem, 2007).
Active and inactive are the calls of the source. The rule behind the calls is not given here.

What was measured:
[1] = molecular target: T1, Androgen receptor (Homo sapiens, UniProt P10275); assay: Binding affinity to human androgen receptor
T1 sequence (P10275 whole entry): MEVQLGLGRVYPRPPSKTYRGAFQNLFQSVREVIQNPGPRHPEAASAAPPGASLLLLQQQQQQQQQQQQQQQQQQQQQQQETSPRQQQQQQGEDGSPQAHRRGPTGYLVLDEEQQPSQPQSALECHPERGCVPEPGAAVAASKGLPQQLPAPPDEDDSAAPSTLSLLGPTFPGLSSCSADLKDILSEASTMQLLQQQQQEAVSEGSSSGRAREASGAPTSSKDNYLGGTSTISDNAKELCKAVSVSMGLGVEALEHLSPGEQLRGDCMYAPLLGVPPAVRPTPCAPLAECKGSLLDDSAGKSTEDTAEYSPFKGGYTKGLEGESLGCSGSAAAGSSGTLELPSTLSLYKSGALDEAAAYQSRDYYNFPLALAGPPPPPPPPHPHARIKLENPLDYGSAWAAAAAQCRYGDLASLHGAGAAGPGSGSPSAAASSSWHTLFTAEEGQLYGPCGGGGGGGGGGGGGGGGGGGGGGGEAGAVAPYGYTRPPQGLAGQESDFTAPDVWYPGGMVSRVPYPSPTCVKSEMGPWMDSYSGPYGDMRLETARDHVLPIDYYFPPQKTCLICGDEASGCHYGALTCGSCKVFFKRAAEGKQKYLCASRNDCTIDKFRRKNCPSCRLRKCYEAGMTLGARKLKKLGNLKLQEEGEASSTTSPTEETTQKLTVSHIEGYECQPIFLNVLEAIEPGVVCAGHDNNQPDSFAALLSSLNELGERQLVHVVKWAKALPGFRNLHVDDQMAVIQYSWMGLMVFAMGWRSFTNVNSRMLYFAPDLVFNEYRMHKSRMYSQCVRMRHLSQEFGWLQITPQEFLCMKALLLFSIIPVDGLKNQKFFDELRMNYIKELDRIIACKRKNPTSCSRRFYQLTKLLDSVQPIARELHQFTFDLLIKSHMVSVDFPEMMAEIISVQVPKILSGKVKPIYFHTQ

[2] = molecular target: T2, Estrogen receptor (Homo sapiens, UniProt P03372); assay: Binding affinity to human estrogen receptor
T2 sequence (P03372 whole entry): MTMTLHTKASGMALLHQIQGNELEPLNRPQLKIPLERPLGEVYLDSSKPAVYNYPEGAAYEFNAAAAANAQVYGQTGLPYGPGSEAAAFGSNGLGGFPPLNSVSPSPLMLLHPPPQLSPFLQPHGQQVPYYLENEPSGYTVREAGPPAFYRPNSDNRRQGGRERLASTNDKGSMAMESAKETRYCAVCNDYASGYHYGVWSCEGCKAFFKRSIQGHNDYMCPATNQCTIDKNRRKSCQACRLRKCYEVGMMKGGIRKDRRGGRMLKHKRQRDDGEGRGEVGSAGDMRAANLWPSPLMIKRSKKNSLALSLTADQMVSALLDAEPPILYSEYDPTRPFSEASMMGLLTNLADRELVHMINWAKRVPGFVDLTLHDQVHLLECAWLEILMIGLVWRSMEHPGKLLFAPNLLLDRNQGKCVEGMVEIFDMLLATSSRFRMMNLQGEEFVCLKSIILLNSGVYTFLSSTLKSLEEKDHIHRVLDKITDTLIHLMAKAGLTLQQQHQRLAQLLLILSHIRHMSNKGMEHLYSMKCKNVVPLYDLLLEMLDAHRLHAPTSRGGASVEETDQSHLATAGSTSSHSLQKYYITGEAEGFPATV

[3] = molecular target: T3, Progesterone receptor (Homo sapiens, UniProt P06401); assay: Binding affinity to human progesterone receptor
T3 sequence (P06401 whole entry): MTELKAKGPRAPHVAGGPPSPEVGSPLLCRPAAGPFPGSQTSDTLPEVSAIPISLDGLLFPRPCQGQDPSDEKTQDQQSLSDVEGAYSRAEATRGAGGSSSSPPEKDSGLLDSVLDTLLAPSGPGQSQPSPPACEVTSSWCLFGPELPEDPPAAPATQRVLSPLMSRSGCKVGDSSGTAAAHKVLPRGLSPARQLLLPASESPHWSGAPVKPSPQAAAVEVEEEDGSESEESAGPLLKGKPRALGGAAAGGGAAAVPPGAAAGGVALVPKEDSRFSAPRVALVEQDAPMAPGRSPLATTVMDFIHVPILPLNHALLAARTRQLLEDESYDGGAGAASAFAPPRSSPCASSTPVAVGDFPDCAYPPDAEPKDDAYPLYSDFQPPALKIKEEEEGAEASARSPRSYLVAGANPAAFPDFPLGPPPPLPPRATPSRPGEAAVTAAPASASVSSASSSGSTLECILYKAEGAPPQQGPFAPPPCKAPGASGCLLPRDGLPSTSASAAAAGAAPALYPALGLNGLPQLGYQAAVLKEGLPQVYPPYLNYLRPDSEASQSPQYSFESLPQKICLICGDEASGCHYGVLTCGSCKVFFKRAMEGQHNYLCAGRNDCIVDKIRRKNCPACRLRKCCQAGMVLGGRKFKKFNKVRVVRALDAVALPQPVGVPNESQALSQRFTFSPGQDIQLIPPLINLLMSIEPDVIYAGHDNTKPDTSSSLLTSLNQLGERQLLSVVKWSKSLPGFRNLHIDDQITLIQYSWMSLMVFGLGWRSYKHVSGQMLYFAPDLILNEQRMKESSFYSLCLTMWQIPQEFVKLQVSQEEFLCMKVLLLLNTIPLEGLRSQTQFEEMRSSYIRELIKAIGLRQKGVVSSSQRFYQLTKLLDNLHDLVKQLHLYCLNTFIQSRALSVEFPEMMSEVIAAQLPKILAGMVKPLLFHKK

[4] = system: Rattus norvegicus; assay: Reduction in aldosterone-induced hypertension in salt-loaded uni-nephrectomized Sprague-Dawley rat at 3 mg/kg, po qd after 14 days; type: functional, organism-based; design: dose 3 mg/kg
[5] = molecular target: T4, Glucocorticoid receptor (Homo sapiens, UniProt P04150); assay: Binding affinity to human glucocorticoid receptor
T4 sequence (P04150 whole entry): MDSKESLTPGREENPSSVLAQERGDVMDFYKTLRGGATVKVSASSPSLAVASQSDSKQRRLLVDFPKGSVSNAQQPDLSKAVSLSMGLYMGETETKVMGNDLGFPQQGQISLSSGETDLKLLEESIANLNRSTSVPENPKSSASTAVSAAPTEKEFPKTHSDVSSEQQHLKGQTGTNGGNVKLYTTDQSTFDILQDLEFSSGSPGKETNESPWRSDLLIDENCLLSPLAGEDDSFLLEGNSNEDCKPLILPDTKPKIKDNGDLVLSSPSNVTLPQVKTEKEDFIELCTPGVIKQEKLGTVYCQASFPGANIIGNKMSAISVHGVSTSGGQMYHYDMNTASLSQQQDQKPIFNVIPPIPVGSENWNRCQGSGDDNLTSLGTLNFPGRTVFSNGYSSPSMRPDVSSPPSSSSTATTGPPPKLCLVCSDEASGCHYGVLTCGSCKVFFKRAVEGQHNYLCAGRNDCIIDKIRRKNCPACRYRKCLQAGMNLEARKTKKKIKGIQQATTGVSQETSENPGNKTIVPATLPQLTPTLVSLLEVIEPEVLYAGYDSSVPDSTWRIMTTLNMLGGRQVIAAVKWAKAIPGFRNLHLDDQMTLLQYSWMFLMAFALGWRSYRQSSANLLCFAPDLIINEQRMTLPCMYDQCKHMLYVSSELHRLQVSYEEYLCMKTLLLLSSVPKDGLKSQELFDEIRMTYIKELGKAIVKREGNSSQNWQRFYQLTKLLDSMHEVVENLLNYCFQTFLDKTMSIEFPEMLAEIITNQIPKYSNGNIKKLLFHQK

[6] = molecular target: T5, Mineralocorticoid receptor (Homo sapiens) (UniProt P08235); assay: Antagonist activity at human mineralocorticoid receptor expressed in COS7 cells after 24 hrs by luciferase reporter gene assay; type: functional, cell-based; conditions: COS-7
T5 sequence (whole entry): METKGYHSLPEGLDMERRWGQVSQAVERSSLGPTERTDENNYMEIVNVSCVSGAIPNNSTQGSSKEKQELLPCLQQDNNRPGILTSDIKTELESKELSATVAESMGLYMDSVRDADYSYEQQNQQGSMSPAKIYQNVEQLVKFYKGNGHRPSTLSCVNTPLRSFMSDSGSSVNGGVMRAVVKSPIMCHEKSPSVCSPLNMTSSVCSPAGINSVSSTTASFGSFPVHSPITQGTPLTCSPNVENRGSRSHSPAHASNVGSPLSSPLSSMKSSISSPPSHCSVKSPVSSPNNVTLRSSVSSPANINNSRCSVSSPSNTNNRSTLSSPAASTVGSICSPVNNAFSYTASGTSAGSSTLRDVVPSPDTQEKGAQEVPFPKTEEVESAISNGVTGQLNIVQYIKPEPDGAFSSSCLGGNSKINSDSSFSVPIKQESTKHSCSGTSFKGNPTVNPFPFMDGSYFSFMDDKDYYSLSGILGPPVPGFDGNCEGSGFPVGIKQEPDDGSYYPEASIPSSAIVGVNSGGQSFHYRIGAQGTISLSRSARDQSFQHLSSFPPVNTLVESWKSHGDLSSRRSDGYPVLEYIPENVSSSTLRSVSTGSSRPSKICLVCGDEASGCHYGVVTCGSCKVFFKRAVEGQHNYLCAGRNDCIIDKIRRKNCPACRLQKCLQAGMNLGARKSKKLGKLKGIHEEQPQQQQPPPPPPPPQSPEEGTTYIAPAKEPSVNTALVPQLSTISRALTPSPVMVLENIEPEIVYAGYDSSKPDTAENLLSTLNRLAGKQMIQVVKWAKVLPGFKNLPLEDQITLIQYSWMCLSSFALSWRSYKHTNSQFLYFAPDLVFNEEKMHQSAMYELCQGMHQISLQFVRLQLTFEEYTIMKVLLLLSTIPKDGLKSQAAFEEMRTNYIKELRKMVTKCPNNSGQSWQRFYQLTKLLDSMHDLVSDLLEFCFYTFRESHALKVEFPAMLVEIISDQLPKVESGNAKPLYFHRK

[7] = molecular target: T6, Mineralocorticoid receptor (Homo sapiens, UniProt P08235); assay: Binding affinity to human mineralocorticoid receptor
T6 sequence (P08235 whole entry): T5 sequence (whole entry)

[8] = system: Rattus norvegicus; assay: Reduction in aldosterone-induced hypertension in salt-loaded uni-nephrectomized Sprague-Dawley rat at 30 mg/kg, po qd after 14 days; type: functional, organism-based; design: dose 30 mg/kg

Row | Compound | Ki [1] | Ki [2] | Ki [3] | Activity [4] | Ki [5] | Kb [6] | Ki [7] | Activity [8]
1 | C[C@@](c1ccc(F)cc1F)(c1c[nH]c2c(NS(C)(=O)=O)cccc12)C1CC1 | 700 nM | > 1100 nM | 163 nM | Active |  |  |  | 
2 | C[C@](c1ccc(F)cc1)(c1c[nH]c2c(NS(C)(=O)=O)cccc12)C1CC1 | 590 nM | > 1100 nM | 313 nM |  | 387 nM | 115 nM | 7.5 nM | 
3 | C[C@@](c1ccc(F)cc1)(c1c[nH]c2c(NS(C)(=O)=O)cccc12)C1CC1 | 849 nM | > 1100 nM | 137 nM | inactive | 167 nM | 38.2 nM | 1.56 nM | 
4 | COC(=O)[C@@H]1CC2=CC(=O)CC[C@]2(C)C2C1C1CC[C@@]3(CCC(=O)O3)[C@@]1(C)[C@H]1O[C@@H]21 (stereo partly specified) [EPIERENONE] | 8890 nM | > 1100 nM | 29400 nM |  | 1760 nM | 189 nM | 124 nM | Active
5 | CC(=O)S[C@@H]1CC2=CC(=O)CC[C@]2(C)[C@H]2CC[C@@]3(C)[C@@H](CC[C@@]34CCC(=O)O4)[C@H]12 [SPIRONOLACTONE] |  | > 1100 nM |  |  | 32.6 nM |  |  | 
